Assay [1] deals with Candida albicans. Kind of assay: Compound was evaluated for antifungal activity as minimum cell growth inhibition against Candida albicans - 2005. It is filed as functional.
The test system of assay [2] is Kluyveromyces marxianus. Kind of assay: Compound was evaluated for antifungal activity as minimum cell growth inhibition against Candida pseudotropicalis -2371. It is filed as functional, candida pseudotrop.
Assay [3] deals with Nakaseomyces glabratus. The assay can be described thus: Compound was evaluated for antifungal activity as minimum cell growth inhibition against Candida glabrata - 2375E. It is filed as functional.
The subject of assay [4] is Cryptococcus neoformans. Kind of assay: Compound was evaluated for antifungal activity as minimum cell growth inhibition against Cryptococcus neoformans - 2867. It is filed as functional.
Assay [5] deals with Candida tropicalis. The assay can be described thus: Compound was evaluated for antifungal activity as minimum cell growth inhibition against Candida tropicalis - 2808. It is filed as functional.
Assay [6] has as its system Candida albicans. Kind of assay: Compound was evaluated for antifungal activity as minimum cell growth inhibition against Candida albicans - 4711E. It is filed as functional.

In brackets after ≈: the same amount, converted by molar mass.

With `CO[C@H]1[C@H]2O[C@H]2[C@H](OCC23C[C@@H]4[C@H](C)CC[C@H]4C4(C=O)CC2C=C(C(C)C)C34C(=O)O)O[C@@H]1C` (some centres not stated), the MIC in assay [1] was 0.25 µg/mL (≈ 0.527 µM); in assay [2], 0.12 µg/mL (≈ 0.253 µM); in assay [3], 125 µg/mL (≈ 263 µM); in assay [4] it was above 125 µg/mL; in assay [5], 4 µg/mL (≈ 8.43 µM).
As to `CO[C@H]1[C@@H]2O[C@@H]2[C@@H](OCC23C[C@@H]4[C@H](C)CC[C@H]4C4(C=O)CC2C=C(C(C)C)C34C(=O)O)O[C@@H]1C` (some centres not stated), the MIC in assay [1] is 4 µg/mL (≈ 8.43 µM); in assay [6] it was 8 µg/mL (≈ 16.9 µM); in assay [2] it was 1 µg/mL (≈ 2.11 µM); in assay [3] it was 31 µg/mL (≈ 65.3 µM); in assay [4], above 125 µg/mL; in assay [5], 31 µg/mL (≈ 65.3 µM).
Consider `CO[C@H]1[C@H]2O[C@H]2[C@@H](OCC23C[C@@H]4[C@H](C)CC[C@H]4C4(C=O)CC2C=C(C(C)C)C34C(=O)O)O[C@@H]1C` (some centres not stated), for which the MIC was 4 µg/mL (≈ 8.43 µM) in assay [1]; 16 µg/mL (≈ 33.7 µM) in assay [6]; 2 µg/mL (≈ 4.21 µM) in assay [2]; 31 µg/mL (≈ 65.3 µM) in assay [3]; 125 µg/mL (≈ 263 µM) in assay [4]; above 125 µg/mL in assay [5].
As to `COC[C@H]1O[C@@H](OCC23C[C@@H]4[C@H](C)CC[C@H]4C4(C=O)CC2C=C(C(C)C)C34C(=O)O)[C@H]2O[C@H]2[C@@H]1OC` (some centres not stated), the MIC in assay [1] was found to be 0.06 µg/mL (≈ 0.119 µM); in assay [6], 0.5 µg/mL (≈ 0.991 µM); in assay [2] it was 0.25 µg/mL (≈ 0.495 µM); in assay [3] it was 62 µg/mL (≈ 123 µM); in assay [4] it was 16 µg/mL (≈ 31.7 µM); in assay [5], 4 µg/mL (≈ 7.93 µM).
Consider `CO[C@H]1[C@@H]2O[C@@H]2[C@H](OCC23C[C@@H]4[C@H](C)CC[C@H]4C4(C=O)CC2C=C(C(C)C)C34C(=O)O)O[C@@H]1CO` (some centres not stated), for which the MIC in assay [1] is 4 µg/mL (≈ 8.15 µM); in assay [6] it was 16 µg/mL (≈ 32.6 µM); in assay [2] it was 16 µg/mL (≈ 32.6 µM); in assay [3] it was above 125 µg/mL; in assay [4], above 125 µg/mL; in assay [5] it was 31 µg/mL (≈ 63.2 µM).
On to `CO[C@H]1[C@@H]2O[C@@H]2[C@H](OCC23C[C@@H]4[C@H](C)CC[C@H]4C4(C=O)CC2C=C(C(C)C)C34C(=O)O)O[C@@H]1C` (some centres not stated), for which the MIC in assay [1] stood at 0.06 µg/mL (≈ 0.126 µM); in assay [6], 0.25 µg/mL (≈ 0.527 µM); in assay [2], 0.03 µg/mL (≈ 0.0632 µM); in assay [3], 16 µg/mL (≈ 33.7 µM); in assay [4], 8 µg/mL (≈ 16.9 µM); in assay [5], 0.25 µg/mL (≈ 0.527 µM).
As to `C/C=C/C=C(/O[C@H]1[C@H](O)[C@H](OCC23C[C@@H]4[C@H](C)CC[C@H]4C4(C=O)CC2C=C(C(C)C)C34C(=O)O)O[C@H](C)[C@H]1O)C(=O)C(CC)CC` (some centres not stated), the minimum inhibitory concentration (MIC) in assay [1] was 0.015 µg/mL (≈ 0.0233 µM); in assay [6], 0.25 µg/mL (≈ 0.389 µM); in assay [2], 0.03 µg/mL (≈ 0.0467 µM); in assay [3], above 125 µg/mL; in assay [4], 0.25 µg/mL (≈ 0.389 µM); in assay [5] it was 0.06 µg/mL (≈ 0.0933 µM).
In the case of `CO[C@H]1[C@@H]2S[C@@H]2[C@H](OCC23C[C@@H]4[C@H](C)CC[C@H]4C4(C=O)CC2C=C(C(C)C)C34C(=O)O)O[C@@H]1C` (some centres not stated), the MIC was 0.03 µg/mL (≈ 0.0611 µM) in assay [1]; 0.12 µg/mL (≈ 0.245 µM) in assay [6]; 0.008 µg/mL (≈ 0.0163 µM) in assay [2]; 16 µg/mL (≈ 32.6 µM) in assay [3]; above 125 µg/mL in assay [4]; 0.5 µg/mL (≈ 1.02 µM) in assay [5].

As a reminder, the MIC is the least concentration at which growth counts as inhibited. The low end stands for a more susceptible organism, the high end for a less susceptible organism.

Source of the values: ChEMBL document CHEMBL1135111, “Antifungal sordarins. part 3: synthesis and structure-activity relationships of 2',3'-fused oxirane derivatives” (Bioorg Med Chem Lett, 2002).
